The term IC50 denotes the concentration that gives 50% inhibition. The low end stands for higher potency, the high end for lower potency. A word on the pIC50: it is the IC50 on a negative log10 scale, so that one unit is a factor of ten. A low value points to a high IC50. One may read the logP as a log measure of how a compound divides between an organic and an aqueous phase.

In the first data set the target is cGMP-specific 3',5'-cyclic phosphodiesterase (Homo sapiens, UniProt O76074). Description: Inhibition of PDE5.
`CCCCN1C(=O)[C@H]2Cc3c([nH]c4ccccc34)[C@@H](c3cccc(Cl)c3)N2C1=O` (relative stereo) showed an IC50 of 50.1 nM.
On the same count and under the same terms, with `CCCCN1C(=O)[C@H]2Cc3c([nH]c4ccccc34)[C@H](c3ccccc3)N2C1=O` (relative stereo) the figure was 20 nM; with `CCCCN1C(=O)[C@H]2Cc3c([nH]c4ccccc34)[C@@H](c3ccoc3)N2C1=O` (relative stereo), 100 nM; with `CCCCN1C(=O)[C@H]2Cc3c([nH]c4ccccc34)[C@@H](c3cccnc3)N2C1=O` (relative stereo), 91.2 nM.
Molecule `CCCCN1C(=O)[C@H]2Cc3c([nH]c4ccccc34)[C@H](c3ccccc3OC)N2C1=O` (relative stereo) showed an IC50 of 1000 nM.
In turn, `CCOc1ccc([C@H]2c3[nH]c4ccccc4c3C[C@@H]3C(=O)N(CC)C(=O)N23)cc1` (relative stereo) showed an IC50 of 7.08 nM.
Same read-out and setting: next, `CCCc1nn(C)c2c(=O)[nH]c(-c3cc(S(=O)(=O)N4CCN(CCO)CC4)ccc3OCC)nc12` [LODENAFIL]: 1.91 nM; `CCCCN1C(=O)[C@H]2Cc3c(n(C)c4ccccc34)[C@H](c3ccc(OC)cc3)N2C1=O` (relative stereo): 2000 nM.
Still for that read-out and setting: with `CCOc1ccc([C@H]2c3[nH]c4ccccc4c3C[C@@H]3C(=O)N(CCc4ccccn4)C(=O)N23)cc1` (relative stereo) the figure was 6.03 nM; with `CCOc1ccc([C@H]2c3[nH]c4ccccc4c3C[C@@H]3C(=O)N(CCn4cccc4)C(=O)N23)cc1` (relative stereo), 100 nM.
As for `CCOc1ccc([C@H]2c3[nH]c4ccccc4c3C[C@@H]3C(=O)NC(=O)N23)cc1` (relative stereo), the IC50 is 20 nM.
Same read-out and setting: next, `CCCCN1C(=O)[C@H]2Cc3c([nH]c4ccccc34)[C@@H](c3ccccc3)N2C1=O` (relative stereo): 60.3 nM.
For the molecule `CCOc1ccc([C@@H]2c3[nH]c4ccccc4c3C[C@@H]3C(=O)N(CC)C(=O)N23)cc1` (relative stereo), the 50% inhibitory concentration (IC50) was 10 nM.
Still for that read-out and setting: with `CCCc1nn(C)c2c(=O)[nH]c(-c3ccccc3O)nc12` the figure was 1000 nM; with `CCOc1ccc([C@@H]2c3[nH]c4ccccc4c3C[C@@H]3C(=O)N(C4CCCCC4)C(=O)N23)cc1`, 7.08 nM; with `CCOc1ccc([C@@H]2c3[nH]c4ccccc4c3C[C@@H]3C(=O)N(Cc4ccccc4)C(=O)N23)cc1` (relative stereo), 3.98 nM.
With `CCOc1ccc([C@H]2c3[nH]c4ccccc4c3C[C@@H]3C(=O)N(Cc4ccccc4)C(=O)N23)cc1` (relative stereo), the IC50 was 18.2 nM.
On the same count and under the same terms, next, `CCCCN1C(=O)[C@H]2Cc3c([nH]c4ccccc34)[C@@H](c3ccc(C#N)cc3)N2C1=O` (relative stereo): 912 nM; `CCCCN1C(=O)[C@H]2Cc3c([nH]c4ccccc34)[C@H](c3ccc(Cl)cc3)N2C1=O` (relative stereo): 20 nM; `CCOc1ccc([C@H]2c3[nH]c4ccccc4c3C[C@@H]3C(=O)N(Cc4cccnc4)C(=O)N23)cc1` (relative stereo): 20 nM.
Same read-out and setting: with `CCCCN1C(=O)[C@H]2Cc3c([nH]c4ccccc34)[C@@H](c3ccc(Cl)cc3)N2C1=O` (relative stereo) the figure was 50.1 nM; with `CCCCN1C(=O)[C@H]2Cc3c([nH]c4ccccc34)[C@H](c3ccc(C#N)cc3)N2C1=O` (relative stereo), 302 nM.
As to `CCCc1nn(C)c2c(=O)[nH]c(-c3cc(S(=O)(=O)N4CCC(C(N)=O)CC4)ccc3OCC)nc12`, the IC50 is 2.09 nM.
Molecule `CCCCN1C(=O)[C@H]2Cc3c([nH]c4ccccc34)[C@@H](c3ccsc3)N2C1=O` (relative stereo) had an IC50 of 30.2 nM.
On the same count and under the same terms, next, `CCCCN1C(=O)[C@H]2Cc3c([nH]c4ccccc34)[C@H](c3cccc(Cl)c3)N2C1=O` (relative stereo): 50.1 nM; `CCCc1nn(C)c2c(=O)[nH]c(-c3ccccc3)nc12`: 4470 nM.
Regarding `CCOc1ccc([C@@H]2c3[nH]c4ccccc4c3C[C@@H]3C(=O)N(C)C(=O)N23)cc1` (relative stereo), the IC50 was 10 nM.
Take `CCOc1ccc([C@H]2c3[nH]c4ccccc4c3C[C@@H]3C(=O)N(CCN(C)C)C(=O)N23)cc1` (relative stereo): half-maximal inhibition (IC50) was put at 30.2 nM.
On the same count and under the same terms, next, `CCCc1n[nH]c2c(=O)[nH]c(-c3ccccc3)nc12`: 81.3 nM; `CCOc1ccc([C@H]2c3[nH]c4ccccc4c3C[C@@H]3C(=O)N(C4CCCCC4)C(=O)N23)cc1` (relative stereo): 3.02 nM.
The same measure, in the same setting: next, `CCCCN1C(=O)[C@H]2Cc3c([nH]c4ccccc34)[C@@H](c3ccncc3)N2C1=O` (relative stereo): 302 nM.

Target in another data set: not listed separately
Kind of data set: Inhibition of PDE5.
Consider `CCCc1nn(C)c2c(=O)[nH]c(-c3cc(S(=O)(=O)N4CCNCC4)ccc3OCC)nc12`, for which the pIC50 amounted to 8.24.
Turning to `CCCc1nn(C)c2c(=O)[nH]c(-c3ccccc3[N+](=O)[O-])nc12`, the pIC50 stood at 5.36.
The same measure, in the same setting: with `CCCc1nn(C)c2c(=O)[nH]c(-c3ccccc3OCC3CC3)nc12` the figure was 6.02.

Test system in another data set: not listed separately
Description: Octanol-water partition coefficient, log P of the compound. The class given is physicochemical.
For the molecule `CCCc1nn(C)c2c(=O)[nH]c(-c3cc(S(=O)(=O)N4CCN(C)CC4)ccc3OCC)nc12`, the logP was 2.51.
On the same count and under the same terms, with `CCOc1ccc(S(=O)(=O)N2CCN(CC)CC2)cc1C1=CC[C@@H]2C(=O)N(C)CC(=O)N2C1` the figure was 0.792; with `CCCCN1C(=O)[C@H]2CC=C(c3cc(S(=O)(=O)N4CCN(CC)CC4)ccc3OCC)CN2C1=O`, 2.77; with `CCCCN1C(=O)[C@H]2CC=C(c3cc(S(=O)(=O)N4CCN(C)CC4)ccc3OCC)CN2C1=O`, 2.4.
Still for that read-out and setting: with `CCCCN1C(=O)[C@H]2C(=O)NC(c3cc(S(=O)(=O)N4CCN(CC)CC4)ccc3OCC)=NN2C1=O` the figure was 0.574.
The same measure, in the same setting: next, `CCCCN1C(=O)c2nc(-c3cc(S(=O)(=O)N4CCN(C)CC4)ccc3OCC)[nH]c(=O)c2C1=O`: 1.86; `CN1CC(=O)N2[C@H](c3ccc4c(c3)OCO4)c3[nH]c4ccccc4c3C[C@@H]2C1=O`: 2.36; `CCCc1nc(C)c2c(=O)[nH]c(-c3cc(S(=O)(=O)N4CCN(CC)CC4)ccc3OCC)nn12`: 2.56.
Take `CCCCN1C(=O)C2=C(N=C(c3cc(S(=O)(=O)N4CCN(C)CC4)ccc3OCC)NC2)C1=O`: the logP amounted to 0.984.
The same measure, in the same setting: with `CCCCN1C(=O)[C@H]2CNC(c3cc(S(=O)(=O)N4CCN(CC)CC4)ccc3OCC)=NN2C1=O` the figure was 1.25; with `CCOc1ccc(S(=O)(=O)N2CCN(C)CC2)cc1C1=CC[C@@H]2C(=O)N(C)CC(=O)N2C1`, 0.416.

Source of the values: ChEMBL document CHEMBL1156541 (Bioorg Med Chem, 2008).
